Experimental data reported in PubChem BioAssay AID2060483 (Molecular Pharmacology Branch, DTP, NCI, 2025).
Where “and” joins values, the source holds several entries; their conditions need not be identical. Equal entries are not always repeated.

Tested on: K24384-001-R-PDC complex spheroids, viability
Assay: Anticancer human tumor K24384-001-R-PDC patient-derived pancreatic adenocarcinoma cell line growth inhibition [GQUAD]
Conditions: for viability, T/C: stronger effect = lower value
From the text: DNA G-quadruplex Stabilizer Agents in Combinations in Complex Spheroids
A high-throughput screen of multi-cell type tumor spheroids was designed to identify active combinations of DNA G-quadruplex stabilizer agents and targeted small molecules. Complex spheroids include a stromal component modeled by human endothelial cells (HUVEC) and fibroblasts modeled by human mesenchymal stem cells (MSCs). The concentration ranges selected for each drug and investigational agent were based upon clinically achievable concentrations if the clinical Cmax of the agent was known.
Compounds. The drugs and investigational agents: pidnarulex (CX-5461; NSC782164), APTO-253 (NSC789042), BRACO-19 (NSC847499), peposertib (NSC802822), ceralasertib (NSC780249), elimusertib (NSC800525), camonsertib (NSC841442), AZD-1390 (NSC803789), olaparib (NSC753686), talazoparib (NSC767125), ART-558 (NSC835418), sotorasib (NSC818433), MRTX-1133 (NSC836407), SN-38 (NSC673596), topotecan (NSC609699), etoposide (NSC141540), doxorubicin (NSC123127), gemcitabine (NSC613327), 5-fluorouracil (NSC19893), paclitaxel (NSC125973), vemurafenib (NSC761431), panobinostat (NSC761190), R-306465 (JNJ-16241199; NSC773264), adavosertib (NSC754352), TP-3654 (NSC805149), carboplatin (NSC241240), KSQ-4279 (NSC840948), and staurosporine (NSC755774) were obtained from the National Cancer Institute (NCI) Developmental Therapeutics Program Chemical Repository (34). The FDA-approved anticancer drug set is available from the NCI Developmental Therapeutics Program. […] The stock solutions were prepared in dimethyl sulfoxide (DMSO, Sigma-Aldrich, St. Louis, MO, cat. D2650) at 800-fold the tested concentration and stored at -70 degrees C prior to their use. All drugs and investigational agents were tested over a range starting from a high concentration at or near the clinical Cmax and decreasing in half-log increments. If the clinical Cmax for an agent had not been determined, the highest concentration tested was 10 microM.
2.3 Cell Culture. All cells were maintained in an incubator at 37 degrees C and 5% CO2 with 95% humidity. The PDC lines were cultured according to standard operating procedures established by the NCI PDMR. All PDCs were thawed and cultured in Matrigel-coated flasks prepared with a working solution of 1X Ham's F-12 nutrient mix, without supplementation (Invitrogen, cat. 11765054), 100 U/mL penicillin-streptomycin (Invitrogen, cat. 15140122), and 2.5% Matrigel (Corning Inc., cat. 354248) for the first three passages. The 857933-349-R-J2-PDC line was cultured in 6C/Colon 1B media, which includes advanced DMEM/F-12 (Thermo Fisher Scientific, cat. 12634028), 10 mM HEPES (Thermo Fisher Scientific, cat. 15630080), 1X GlutaMAX supplement (Thermo Fisher Scientific, cat. 35050061), 0.1 mg/mL primocin (InvivoGen, cat. ant-pm-2), 10% defined fetal bovine serum, heat inactivated (HyClone Laboratories Inc., cat. SH30070.03HI), 50% L-WRN conditioned media (ATCC, cat. CRL-3276), 1.25 mM N-Acetyl-L-cysteine (Sigma-Aldrich, cat. A9165), 10 mM nicotinamide (Sigma-Aldrich, cat. N0636), 1X B-27 supplement (Thermo Fisher Scientific, cat. 17504044), 1X N-2 supplement (Thermo Fisher Scientific, cat. 17502048), 10 microM Y-27632 dihydrochloride (Tocris Bioscience, cat. 1254), and 50 ng/mL human EGF recombinant protein (Thermo Fisher Scientific, cat. PHG0311). The 485176-168-R4-J1-PDC line was cultured in Panc media, which includes all 6C/Colon 1B media components plus 100 ng/mL human FGF-10 (Thermo Fisher Scientific, cat. 100-26), 500 nM SB-431542 (Selleckchem, cat. S1067), and gastrin (Tocris, cat. 3006).
[…]
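Note: spheroids exposed to compounds for seven days.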

CCc1c2c(nc3ccc(O)cc13)-c1cc3c(c(=O)n1C2)COC(=O)[C@]3(O)CC
viability, T/C (compound 0.000999 µM): 99.6% and 68.6% and 79.3% | viability, T/C (compound 0.00316 µM): 52.9% and 58% and 61.9% | viability, T/C (compound 0.00999 µM): 65.9% and 39.2% and 63.5% | viability, T/C (compound 0.0316 µM): 43.4% and 33% and 29.1% | viability, T/C (compound 0.0999 µM): 27.3% and 38% and 31.1% | viability, T/C (compound 0.316 µM): 24.3% (2×) and 23.9% | IC50 (curve of compound): 12.8 nM and 4.92 nM and 15.7 nM

CCCS(=O)(=O)Nc1ccc(F)c(C(=O)c2c[nH]c3ncc(-c4ccc(Cl)cc4)cc23)c1F
viability, T/C (compound 0.0316 µM): 99.8% and 109% and 105% | viability, T/C (compound 0.1 µM): 107% and 112% and 96.4% | viability, T/C (compound 0.316 µM): 128% and 125% and 130% | viability, T/C (compound 1 µM): 119% and 110% and 116% | viability, T/C (compound 3.16 µM): 137% and 147% and 123% | viability, T/C (compound 10 µM): 46.2% and 54.7% and 52.6% | IC50 (curve of compound): 9400 nM and > 10000 nM

CC(C)n1c(=O)n(C)c2cnc3cc(F)c(-c4ccc(OCCCN5CCCCC5)nc4)cc3c21 + Cc1cnc(CNC(=O)c2c(=O)c3ccc(N4CCCN(C)CC4)nc3n3c2sc2ccccc23)cn1
IC50 (curve of first compound, second compound 0.0316 µM): > 10000 nM | IC50 (curve of first compound, second compound 0.1 µM): > 10000 nM | IC50 (curve of first compound, second compound 0.316 µM): > 10000 nM | IC50 (curve of first compound, second compound 1 µM): 1880 nM | IC50 (curve of first compound, second compound 3.16 µM): < 31.6 nM | IC50 (curve of first compound, second compound 10 µM): < 31.6 nM | viability, T/C (second compound 0.0316 µM, first compound 0.0316 µM): 68.1% | viability, T/C (second compound 0.0316 µM, first compound 0.1 µM): 77% | viability, T/C (second compound 0.0316 µM, first compound 0.316 µM): 76.9% | viability, T/C (second compound 0.0316 µM, first compound 1 µM): 92.9% | viability, T/C (second compound 0.0316 µM, first compound 3.16 µM): 99.9% | viability, T/C (second compound 0.0316 µM, first compound 10 µM): 87.7% | viability, T/C (second compound 0.1 µM, first compound 0.0316 µM): 70.1% | viability, T/C (second compound 0.1 µM, first compound 0.1 µM): 84.2% | viability, T/C (second compound 0.1 µM, first compound 0.316 µM): 67.1% | viability, T/C (second compound 0.1 µM, first compound 1 µM): 80.6% | viability, T/C (second compound 0.1 µM, first compound 3.16 µM): 83.5% | viability, T/C (second compound 0.1 µM, first compound 10 µM): 69.3% | viability, T/C (second compound 0.316 µM, first compound 0.0316 µM): 60.3% | viability, T/C (second compound 0.316 µM, first compound 0.1 µM): 81.4% | viability, T/C (second compound 0.316 µM, first compound 0.316 µM): 55% | viability, T/C (second compound 0.316 µM, first compound 1 µM): 62% | viability, T/C (second compound 0.316 µM, first compound 3.16 µM): 71.2% | viability, T/C (second compound 0.316 µM, first compound 10 µM): 52% | viability, T/C (second compound 1 µM, first compound 0.0316 µM): 48.1% | viability, T/C (second compound 1 µM, first compound 0.1 µM): 52% | viability, T/C (second compound 1 µM, first compound 0.316 µM): 57.7% | viability, T/C (second compound 1 µM, first compound 1 µM): 51.4% | viability, T/C (second compound 1 µM, first compound 3.16 µM): 54.6% | viability, T/C (second compound 1 µM, first compound 10 µM): 41.5% | viability, T/C (second compound 3.16 µM, first compound 0.0316 µM): 44.4% | viability, T/C (second compound 3.16 µM, first compound 0.1 µM): 46% | viability, T/C (second compound 3.16 µM, first compound 0.316 µM): 46.2% | viability, T/C (second compound 3.16 µM, first compound 1 µM): 58.4% | viability, T/C (second compound 3.16 µM, first compound 3.16 µM): 42% | viability, T/C (second compound 3.16 µM, first compound 10 µM): 49.7% | viability, T/C (second compound 10 µM, first compound 0.0316 µM): 39% | viability, T/C (second compound 10 µM, first compound 0.1 µM): 19.4% | viability, T/C (second compound 10 µM, first compound 0.316 µM): 39.9% | viability, T/C (second compound 10 µM, first compound 1 µM): 46.8% | viability, T/C (second compound 10 µM, first compound 3.16 µM): 32.8% | viability, T/C (second compound 10 µM, first compound 10 µM): 0.33%
